Laboratory results: article PMC6691788, “Design and synthesis of phthalazine-based compounds as potent anticancer agents with potential antiangiogenic activity via VEGFR-2 inhibition” (Journal of Enzyme Inhibition and Medicinal Chemistry, 2019)

Columns and labels:
[1] = test system: full NCI 60 cell panel; test: NCI 60 cell panel SRB screen, whole panel; assay type: cell-based, human; details: Homo sapiens, 60 cell; for activity at 10 µM: mean over the panel, single dose 10 μM, read-out: Mean percent cell growth promotion; for inhibition at 10 µM: single dose 10 µM, read-out: cell growth inhibition against various cell lines
[2] = test system: A549/ATCC; test: NCI 60 cell panel SRB screen; assay type: cell-based; details: Homo sapiens; for GI50 / IC (TGI) / LC50 (concentration killing 50% of cells): 5 log dose; for LC50 (concentration killing 50% of cells): 48 h; for activity at 10 µM: single dose 10 μM, read-out: percent cell growth promotion
[3] = test system: OVCAR-3; test: NCI 60 cell panel SRB screen; assay type: cell-based; details: Homo sapiens; for GI50 / IC (TGI) / CC50: OVCAR-3, 5 log dose; for CC50: 48 h, read-out: LC50 (the source's name); for activity at 10 µM: OVCAR-3, single dose 10 μM, read-out: percent cell growth promotion
[4] = test system: NCI-H226; test: NCI 60 cell panel SRB screen; assay type: cell-based; details: Homo sapiens; for GI50 / IC (TGI) / CC50: NCI-H226, 5 log dose; for CC50: 48 h, read-out: LC50 (the source's name); for activity at 10 µM: NCI-H226, single dose 10 μM, read-out: percent cell growth promotion
[5] = test system: OVCAR-5; test: NCI 60 cell panel SRB screen; assay type: cell-based; details: Homo sapiens; for GI50 / IC (TGI) / CC50: OVCAR-5, 5 log dose; for CC50: 48 h, read-out: LC50 (the source's name); for activity at 10 µM: OVCAR-5, single dose 10 μM, read-out: percent cell growth promotion
[6] = test system: NCI-H522; test: NCI 60 cell panel SRB screen; assay type: cell-based; details: Homo sapiens; for GI50 / IC (TGI) / CC50: NCI-H522, 5 log dose; for CC50: 48 h, read-out: LC50 (the source's name); for activity at 10 µM: NCI-H522, single dose 10 μM, read-out: percent cell growth promotion
[7] = test system: MOLT-4; test: NCI 60 cell panel SRB screen; assay type: cell-based; details: Homo sapiens; for GI50 / IC (TGI) / CC50: MOLT-4, 5 log dose; for CC50: 48 h, read-out: LC50 (the source's name)
[8] = test system: T-47D; test: NCI 60 cell panel SRB screen; assay type: cell-based; details: Homo sapiens, T47D; for IC (TGI): read-out: TGI; for activity at 10 µM: read-out: percent cell growth promotion; for CC50: T-47D, 5 log dose, 48 h, read-out: LC50 (the source's name)
[9] = test system: RXF 393; test: NCI 60 cell panel SRB screen; assay type: cell-based; details: Homo sapiens; for GI50 / IC (TGI) / CC50: RXF 393, 5 log dose; for CC50: 48 h, read-out: LC50 (the source's name); for activity at 10 µM: RXF 393, single dose 10 μM, read-out: percent cell growth promotion
[10] = test system: HCC-2998; test: NCI 60 cell panel SRB screen; assay type: cell-based; details: Homo sapiens; for GI50 / IC (TGI) / LC50 (50% lethal concentration): HCC-2998, 5 log dose; for LC50 (50% lethal concentration): 48 h; for activity at 10 µM: HCC-2998, single dose 10 μM, read-out: percent cell growth promotion
[11] = test system: SNB-75; test: NCI 60 cell panel SRB screen; assay type: cell-based; details: Homo sapiens; for GI50 / IC (TGI) / LC50 (concentration killing 50% of cells): SNB-75, 5 log dose; for LC50 (concentration killing 50% of cells): 48 h; for activity at 10 µM: SNB-75, single dose 10 μM, read-out: percent cell growth promotion
[12] = test system: HCT-15; test: NCI 60 cell panel SRB screen; assay type: cell-based; details: Homo sapiens; for GI50 / IC (TGI) / CC50: HCT-15, 5 log dose; for CC50: 48 h, read-out: LC50 (the source's name); for activity at 10 µM: HCT-15, single dose 10 μM, read-out: percent cell growth promotion
[13] = test system: OVCAR-4; test: NCI 60 cell panel SRB screen; assay type: cell-based; details: Homo sapiens; for GI50 / IC (TGI) / CC50: OVCAR-4, 5 log dose; for CC50: 48 h, read-out: LC50 (the source's name); for activity at 10 µM: OVCAR-4, single dose 10 μM, read-out: percent cell growth promotion
[14] = test system: MDA-MB-435; test: NCI 60 cell panel SRB screen; assay type: cell-based; details: Homo sapiens; for GI50: MDA-MB-435; for IC (TGI): MDA-MB-435, read-out: TGI; for activity at 10 µM: MDA-MB-435, read-out: percent cell growth promotion; for CC50: MDA-MB-435, 5 log dose, 48 h, read-out: LC50 (the source's name)
[15] = test system: K-562; test: NCI 60 cell panel SRB screen; assay type: cell-based; details: Homo sapiens, K562; for GI50 / IC (TGI) / CC50: K-562, 5 log dose; for CC50: 48 h, read-out: LC50 (the source's name); for activity at 10 µM: K-562, single dose 10 μM, read-out: percent cell growth promotion
[16] = test system: TK-10; test: NCI 60 cell panel SRB screen; assay type: cell-based, human; details: for activity at 10 µM: TK-10, single dose 10 μM, read-out: percent cell growth promotion
[17] = test system: SNB-19; test: NCI 60 cell panel SRB screen; assay type: cell-based; details: Homo sapiens; for GI50 / IC (TGI) / CC50: SNB-19, 5 log dose; for CC50: 48 h, read-out: LC50 (the source's name); for activity at 10 µM: SNB-19, single dose 10 μM, read-out: percent cell growth promotion
[18] = test system: CAKI-1; test: NCI 60 cell panel SRB screen; assay type: cell-based, human; details: for activity at 10 µM: CAKI-1, single dose 10 μM, read-out: percent cell growth promotion

## O=C(Nc1ccccc1)Nc1ccc(Oc2nnc(Cl)c3ccccc23)cc1 [Compound 13a, 1–(4-(4-Chlorophthalazin-1-yloxy)phenyl)-3-phenylurea]
[1]
  activity at 10 µM: 24.1%
  inhibition at 10 µM: > 90%
[2]
  GI50: 3.47 µM
  IC (TGI): 18.4 µM
  LC50 (concentration killing 50% of cells): > 25 µM
  activity at 10 µM: 11.2%
[3]
  GI50: 2.64 µM
  IC (TGI): 5.97 µM
  CC50: 13.5 µM
  activity at 10 µM: 25.4%
[4]
  GI50: 1.95 µM
  IC (TGI): 9.25 µM
  CC50: > 25 µM
  activity at 10 µM: 8.66%
[5]
  GI50: 5.61 µM
  IC (TGI): 15.3 µM
  CC50: > 25 µM
  activity at 10 µM: 86.3%
[6]
  GI50: 2.8 µM
  IC (TGI): 9.68 µM
  CC50: > 25 µM
  activity at 10 µM: 2%
[7]
  GI50: 2.6 µM
  IC (TGI): 11.4 µM
  CC50: > 25 µM
[8]
  GI50: 0.63 µM
  IC (TGI): 10.8 µM
  activity at 10 µM: -18%
  CC50: > 25 µM
[9]
  GI50: 2.69 µM
  IC (TGI): 6.24 µM
  CC50: 14.5 µM
  activity at 10 µM: -3.63%
[10]
  GI50: 4.2 µM
  IC (TGI): 12.2 µM
  LC50 (50% lethal concentration): > 25 µM
  activity at 10 µM: 52.9%
[11]
  GI50: 1.08 µM
  IC (TGI): 5.9 µM
  LC50 (concentration killing 50% of cells): 21.3 µM
  activity at 10 µM: -42%
[12]
  GI50: 3.54 µM
  IC (TGI): 12.9 µM
  CC50: > 25 µM
  activity at 10 µM: 36.4%
[13]
  GI50: 1.73 µM
  IC (TGI): 12.2 µM
  CC50: > 25 µM
  activity at 10 µM: 0.22%
[14]
  GI50: 7.54 µM
  IC (TGI): > 25 µM
  activity at 10 µM: 48.6%
  CC50: > 25 µM
[15]
  GI50: 6.21 µM
  IC (TGI): > 25 µM
  CC50: > 25 µM
  activity at 10 µM: 51.6%
[16]; Homo sapiens, TK-10, 5 log dose
  GI50: 6.08 µM
[16]; Homo sapiens, TK-10, 5 log dose, 48 h, read-out: LC50 (the source's name)
  CC50: > 25 µM
[16]; Homo sapiens
  activity at 10 µM: 25.3%
[16]; TK-10, 5 log dose
  TGI: 14.9 µM
[17]
  GI50: 1.67 µM
  IC (TGI): 8.46 µM
  CC50: > 25 µM
  activity at 10 µM: 9.64%
[18]; CAKI-1, 5 log dose
  TGI: 14.3 µM
[18]; Homo sapiens, CAKI-1, 5 log dose
  GI50: 3.34 µM
[18]; Homo sapiens, CAKI-1, 5 log dose, 48 h, read-out: LC50 (the source's name)
  CC50: > 25 µM
[18]; Homo sapiens
  activity at 10 µM: 84.4%

## Clc1ccc(Nc2nnc(CNc3ccccc3)c3ccccc23)cc1 [Compound 16a, N-(4-Chlorophenyl)-4-((phenylamino)methyl)phthalazin-1-amine]
[1]
  activity at 10 µM: 10.7%
  inhibition at 10 µM: > 90%
[2]
  GI50: 3.17 µM
  IC (TGI): 20 µM
  LC50 (concentration killing 50% of cells): > 25 µM
  activity at 10 µM: 20.3%
[3]
  GI50: 3.51 µM
  IC (TGI): 8.69 µM
  CC50: 21.5 µM
  activity at 10 µM: -1.64%
[4]
  GI50: 2.52 µM
  IC (TGI): 7.98 µM
  CC50: > 25 µM
  activity at 10 µM: 25%
[5]
  GI50: 4.92 µM
  IC (TGI): > 25 µM
  CC50: > 25 µM
  activity at 10 µM: 41.5%
[6]
  GI50: 0.68 µM
  IC (TGI): 4.62 µM
  CC50: 18.5 µM
  activity at 10 µM: -5.92%
[7]
  GI50: 1.71 µM
  IC (TGI): 8.75 µM
  CC50: > 25 µM
[7]; MOLT-4, single dose 10 μM, read-out: percent cell growth promotion
  activity at 10 µM: -9.21%
[8]
  GI50: 1.17 µM
  IC (TGI): 8.28 µM
  activity at 10 µM: 2.82%
  CC50: > 25 µM
[9]
  GI50: 2.6 µM
  IC (TGI): 8.12 µM
  CC50: > 25 µM
  activity at 10 µM: 25.7%
[10]
  GI50: 4.85 µM
  IC (TGI): 1.59 µM
  LC50 (50% lethal concentration): > 25 µM
  activity at 10 µM: 18.3%
[11]
  GI50: 0.87 µM
  IC (TGI): 7.05 µM
  LC50 (concentration killing 50% of cells): > 25 µM
  activity at 10 µM: 19.6%
[12]
  GI50: 2.99 µM
  IC (TGI): 9.39 µM
  CC50: > 25 µM
  activity at 10 µM: 13.4%
[13]
  GI50: 3 µM
  IC (TGI): > 25 µM
  CC50: > 25 µM
  activity at 10 µM: 19.3%
[14]
  GI50: 1.47 µM
  IC (TGI): 7.88 µM
  activity at 10 µM: 4.17%
  CC50: > 25 µM
[15]
  GI50: 1.71 µM
  IC (TGI): 14.5 µM
  CC50: > 25 µM
  activity at 10 µM: 5.39%
[16]; Homo sapiens
  activity at 10 µM: -0.69%
[17]
  GI50: 4.71 µM
  IC (TGI): 22.7 µM
  CC50: > 25 µM
  activity at 10 µM: 25.9%
[18]; Homo sapiens
  activity at 10 µM: 28.2%
